Measurements published in patent US8748594B2, “Process for the preparation and purification of topiramate” (Scinopharm Taiwan, Ltd., priority 2010, dated 2014).

Assay: Solubility of topiramate in the first organic solvent (xylene, toluene)
Format: physicochemical
Method: It was further observed that the yield during the precipitation step can be improved when using xylene instead of toluene in the present invention. This is attributed to the fact that topiramate is less soluble in xylene compared to toluene. The solubility of topiramate in xylene was detected to be 0.0025 mg per mg xylene whereas the solubility of topiramate in toluene is 0.008 mg per mg solvent. Therefore, when using xylene as the first solvent in the present invention, the loss of topiramate in the mother liquid can be reduced.

With `CC1(C)O[C@@H]2[C@@H](CO[C@@]3(COS(N)(=O)=O)OC(C)(C)O[C@@H]23)O1` [topiramate, 2,3:4,5-bis-O-(1-methylethylidene)-β-D-fructopyranose sulfamate] the “solubility of topiramate in toluene” value (solvent toluene) was 0.008 mg per mg solvent and the “solubility of topiramate in xylene” value (solvent xylene) was 0.0025 mg per mg xylene.
